Data reported in patent publication US20180184654A1, “Pesticidal Compositions Comprising a Triazole Compound” (BASF Agro B.V., priority 2015, published 2018).

Assays:
Leptosphaeria nodorum = experiment: Microtest: activity against wheat leaf spots caused by Leptosphaeria nodorum (Leptno); assay type: cell-based; settings: MTP, 405 nm, 7 days after inoculation
Experimental: (§1) The active compounds were formulated separately as a stock solution having a concentration of 10000 ppm in dimethyl sulfoxide.
(§2) The stock solutions were mixed according to the ratio, pipetted onto a micro titer plate (MTP) and diluted with water to the stated concentrations. A spore suspension of Leptosphaeria nodorum in an aqueous biomalt or yeast-bactopeptone-glycerine solution was then added. The plates were placed in a water vapor-saturated chamber at a temperature of 18° C. Using an absorption photometer, the MTPs were measured at 405 nm 7 days after the inoculation.
(§3) The measured parameters were compared to the growth of the active compound-free control variant (100%) and the fungus-free and active compound-free blank value to determine the relative growth in % of the pathogens in the respective active compounds.
(§4) These percentages were converted into efficacies.
(§5) The expected efficacies of active compound mixtures were determined using Colby's formula [R. S. Colby, “Calculating synergistic and antagonistic responses of herbicide combinations”, Weeds 15, 20-22 (1967)] and compared with the observed efficacies.

Septoria tritici = experiment: Microtest: activity against leaf blotch on wheat caused by Septoria tritici (Septtr); assay type: cell-based; settings: MTP, 405 nm, 7 days after inoculation
Experimental: as §1
as §2, with “Septoria tritici” for “Leptosphaeria nodorum”
as §3, §4, §5

SMILES	Observed efficacy (Leptosphaeria nodorum; single compound at 0.016 ppm)	Observed efficacy (Septoria tritici; single compound at 0.001 ppm)	Observed efficacy (Leptosphaeria nodorum; single compound at 63 ppm)	Observed efficacy (Septoria tritici; single compound at 4 ppm)	Observed efficacy (Septoria tritici; single compound at 16 ppm)
CC(O)(Cn1cncn1)c1ccc(Oc2ccc(Cl)cc2)cc1C(F)(F)F (stereo not shown) [I-3, 2-[4-(4-chlorophenoxy)-2-(trifluoromethyl)phenyl]-1-(1,2,4-triazol-1-yl)propan-2-ol]	23%	6%	–	–	–
CCN(C(=O)c1cnn(C(C)C(C)C)c1C)c1ccnnc1 (stereo not shown) [II-2, 1-(1,2-dimethylpropyl)-N-ethyl-5-methyl-N-pyridazin-4-yl-pyrazole-4-carboxamide]	–	–	7%	7%	–
CCN(C(=O)c1cnn(C(C)C2(C#N)CC2)c1C)c1ccnnc1 (stereo not shown) [II-4, 1-[1-(1-cyanocyclopropyl)ethyl]-N-ethyl-5-methyl-N-pyridazin-4-yl-pyrazole-4-carboxamide]	–	–	2%	–	–
CCN(C(=O)c1cnn(C(C)C(C)F)c1C)c1ccnnc1 (stereo not shown) [II-5, N-ethyl-1-(2-fluoro-1-methyl-propyl)-5-methyl-N-pyridazin-4-yl-pyrazole-4-carboxamide]	–	–	12%	–	9%
